Results taken from ChEMBL document CHEMBL3612029, “Design, synthesis and anticancer activity of Michael-type thiol adducts of α-santonin analogue with exocyclic methylene” (Eur J Med Chem, 2015).

Legend:
PC-3 = assay: Cytotoxicity against human PC3 cells assessed as growth inhibition after 48 hrs by sulphorhodamine B assay; assay type: functional, cell-based; conditions: PC-3, 48 h
MCF7 [1] = assay: Cytotoxicity against human MCF7 cells assessed as growth inhibition after 48 hrs by sulphorhodamine B assay; assay type: functional, cell-based; conditions: MCF7, 48 h
A549 = assay: Cytotoxicity against human A549 cells assessed as growth inhibition after 48 hrs by sulphorhodamine B assay; assay type: functional, cell-based; conditions: A549, 48 h
HCT-116 = assay: Cytotoxicity against human HCT116 cells assessed as growth inhibition after 48 hrs by sulphorhodamine B assay; assay type: functional, cell-based; conditions: HCT-116, 48 h
MCF7 [2] = assay: Cell cycle arrest in human MCF7 cells assessed as accumulation at subG1 phase at 1 uM after 24 hrs by propidium iodide staining-based flow cytometric analysis (reference value: 4.8%); assay type: functional
MCF7 [3] = assay: Cell cycle arrest in human MCF7 cells assessed as accumulation at subG1 phase at 1.5 uM after 24 hrs by propidium iodide staining-based flow cytometric analysis (reference value: 4.8%); assay type: functional
[4] = target: Transcription factor p65 (Homo sapiens) (UniProt Q04206); assay: Inhibition of NF-kappa-B p65 subunit binding to DNA response element in human MCF7 cell nuclear lysates after 24 hrs
Chain of Transcription factor p65 (Homo sapiens) (Q04206 whole entry): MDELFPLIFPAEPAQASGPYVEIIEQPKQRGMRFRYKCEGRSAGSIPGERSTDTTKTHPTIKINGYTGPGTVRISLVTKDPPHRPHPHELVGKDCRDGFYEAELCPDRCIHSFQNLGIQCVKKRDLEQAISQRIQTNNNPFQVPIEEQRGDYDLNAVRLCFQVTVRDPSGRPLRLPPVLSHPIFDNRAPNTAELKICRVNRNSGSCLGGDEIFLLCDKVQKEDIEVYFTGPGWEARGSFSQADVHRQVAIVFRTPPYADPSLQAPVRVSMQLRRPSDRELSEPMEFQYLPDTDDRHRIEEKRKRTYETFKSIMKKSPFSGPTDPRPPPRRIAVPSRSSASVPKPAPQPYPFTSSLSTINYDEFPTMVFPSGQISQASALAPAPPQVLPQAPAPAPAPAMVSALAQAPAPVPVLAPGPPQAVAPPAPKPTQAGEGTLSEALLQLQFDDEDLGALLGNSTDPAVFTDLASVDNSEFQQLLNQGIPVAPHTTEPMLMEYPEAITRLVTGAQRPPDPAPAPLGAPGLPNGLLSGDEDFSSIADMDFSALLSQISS

[5] = target: Transcription factor p65 (Homo sapiens) (UniProt Q04206); assay: Inhibition of NF-kappa-B p65 subunit binding to DNA response element in human MCF7 cell nuclear lysates at 1.5 uM after 24 hrs relative to control
[6] = target: Transcription factor p65 (Homo sapiens) (UniProt Q04206); assay: Inhibition of NF-kappa-B p65 subunit binding to DNA response element in human MCF7 cell nuclear lysates at 1 uM after 24 hrs relative to control
MCF7 [7] = assay: Cell cycle arrest in human MCF7 cells assessed as accumulation at subG1 phase after 24 hrs by propidium iodide staining-based flow cytometric analysis; assay type: functional
MCF7 [8] = assay: Cell cycle arrest in human MCF7 cells assessed as accumulation at subG1 phase at 2 uM after 24 hrs by propidium iodide staining-based flow cytometric analysis (reference value: 4.8%); assay type: functional
[9] = target: Transcription factor p65 (Homo sapiens) (UniProt Q04206); assay: Inhibition of NF-kappa-B p65 subunit binding to DNA response element in human MCF7 cell nuclear lysates at 2 uM after 24 hrs relative to control
[10] = target: Transcription factor p65 (Homo sapiens) (UniProt Q04206); assay: Inhibition of NF-kappa-B p65 subunit binding to DNA response element in human MCF7 cell nuclear lysates at 3 uM after 24 hrs relative to control

SMILES | IC50 (PC-3) [µM] | IC50 (MCF7 [1]) [µM] | IC50 (A549) [µM] | IC50 (HCT-116) [µM] | Activity (MCF7 [2]) [%] | Activity (MCF7 [3]) [%] | inhibition [4] | inhibition [5] [%] | inhibition [6] [%] | Activity (MCF7 [7]) | Activity (MCF7 [8]) [%] | inhibition [9] [%] | inhibition [10] [%]
C=C1C(=O)O[C@@H]2C3=C(C)C(=O)C=C[C@]3(C)CC[C@@H]12 | 32.7 | 25.2 | > 50 | 31.5 |  |  |  |  |  |  |  |  | 
CCSC[C@@H]1C(=O)O[C@@H]2C3=C(C)C(=O)C=C[C@]3(C)CC[C@@H]12 | 9.9 | 23.5 | 12.2 | 16.5 |  |  |  |  |  |  |  |  | 
CC1=C2[C@H]3OC(=O)[C@@H](CSc4ccccn4)[C@@H]3CC[C@@]2(C)C=CC1=O | 1.9 | 0.4 | 4.1 | 0.5 | 38 | 44.6 | Dose-dependent effect | 43 | 27 |  |  |  | 
CC1=C2[C@H]3OC(=O)[C@@H](CSc4ccc(Br)cc4C)[C@@H]3CC[C@@]2(C)C=CC1=O | 8.5 | 8.5 | 10 | 1.4 |  |  |  |  |  |  |  |  | 
CC1=C2[C@H]3OC(=O)[C@@H](CSc4nc5ccccc5c(=O)[nH]4)[C@@H]3CC[C@@]2(C)C=CC1=O | 31.1 | 17.2 | 18.3 | 20.3 |  |  |  |  |  |  |  |  | 
CC1=C2[C@H]3OC(=O)[C@@H](CSc4ccccc4Br)[C@@H]3CC[C@@]2(C)C=CC1=O | 2.6 | 2.3 | 2.8 | 1.1 |  |  |  |  |  |  |  |  | 
COc1ccccc1SC[C@@H]1C(=O)O[C@@H]2C3=C(C)C(=O)C=C[C@]3(C)CC[C@@H]12 | 40.7 | 36.1 | > 50 | 45.9 |  |  |  |  |  |  |  |  | 
CC1=C2[C@H]3OC(=O)[C@@H](CSc4nc5ccccc5n4C)[C@@H]3CC[C@@]2(C)C=CC1=O | 34.9 | 39.2 | 42 | 20.7 |  |  |  |  |  |  |  |  | 
CC1=C2[C@H]3OC(=O)[C@@H](CSc4ccc(Cl)cc4)[C@@H]3CC[C@@]2(C)C=CC1=O | 2.1 | 1 | 2.7 | 0.8 |  | 45.1 | Dose-dependent effect | 36 |  | Dose-dependent effect | 46.6 | 49 | 62
CC1=C2[C@H]3OC(=O)[C@@H](CSC4CCCCC4)[C@@H]3CC[C@@]2(C)C=CC1=O | > 50 | > 50 | 45.2 | > 50 |  |  |  |  |  |  |  |  | 
CC1=C2[C@H]3OC(=O)[C@@H](CSc4ccc(C)c(Br)c4)[C@@H]3CC[C@@]2(C)C=CC1=O | 31 | 20.2 | 4.1 | 0.8 |  |  |  |  |  |  |  |  | 
CC1=C2[C@H]3OC(=O)[C@@H](CSc4ccccc4F)[C@@H]3CC[C@@]2(C)C=CC1=O | 2 | 1.2 | 1.8 | 0.9 |  |  |  |  |  |  |  |  | 
